Numbered stars: 1 amine (or outer) side, 2 acyl side, 3 side chain; on linkers, the order of the positions; unused ones are H or OH. Bridge positions count the residues as written; N and C are the ends. Square brackets hold non-standard residues; d marks the D form. Peptide text beside a SMILES is read from it. * marks the point of attachment. ξ: configuration not given here. pTerphenylCO(4''-OnC5H11) = CCCCCOc1ccc(-c2ccc(-c3ccc(C(=O)*)cc3)cc2)cc1; Orn(4R-OH,5R-OH) = O=C([C@H](C[C@@H](O)[C@@H](O)N[*:3])N[*:1])[*:2]; Pro(3S-OH,4S-Me) = C[C@H]1CN[C@H](C(=O)O)[C@H]1O; hTyr(3R-OH) = N[C@H](C(=O)O)[C@H](O)Cc1ccc(O)cc1; Hyp = O=C(O)[C@@H]1C[C@@H](O)CN1; Thr(3ξ) = CC(O)[C@H](N)C(=O)O
Assays:
C. albicans = conditions: in vitro
C. parapsilosis = conditions: in vitro
A. fumigatus [1] = conditions: in vitro
Histoplasma capsulatum = conditions: in vitro
Cryptococcus neoformans = conditions: in vitro
A. Fumigatus [2] = conditions: murine model of organ recovery, cited from earlier work
Pneumocystis carinii = conditions: cited from earlier work
[3] = the molecule shown is the open-chain precursor; other bond; 21-membered ring; SnCl2/NaHCO3; CH2Cl2; 2.0 mM

| Compound | Minimal Inhibitory Concentration MIC C. albicans (C. albicans) | Minimal Inhibitory Concentration MIC C. parapsilosis (C. parapsilosis) | Minimal Inhibitory Concentration MIC A. fumigatus (A. fumigatus [1]) | Minimal Inhibitory Concentration MIC Histoplasma capsulatum (Histoplasma capsulatum) | Minimal Inhibitory Concentration MIC Cryptococcus neoformans (Cryptococcus neoformans) | number of A. Fumigatus recovered from the kidneys (A. Fumigatus [2]; administered intraperitoneally) | effectiveness compared with amphotericin B on a mg/kg basis (A. Fumigatus [2]; both administered intraperitoneally) | reduction of the number of cysts in the lungs (Pneumocystis carinii; heavily infected, immunosuppressed rats, orally 5 mg/kg once daily for 4 days) | reduction in all life cycle forms (Pneumocystis carinii; prophylactic oral administration of 1 mg/kg twice daily for 4 weeks) | ring closure, crude yield [3] |
| --- | --- | --- | --- | --- | --- | --- | --- | --- | --- | --- |
| CCCCCOc1ccc(-c2ccc(-c3ccc(C(=O)N[C@H]4C[C@@H](O)[C@@H](O)NC(=O)[C@@H]5[C@@H](O)[C@@H](C)CN5C(=O)[C@H](C(C)O)NC(=O)[C@H]([C@H](O)Cc5ccc(O)cc5)NC(=O)[C@@H]5C[C@@H](O)CN5C(=O)[C@H](C(C)O)NC4=O)cc3)cc2)cc1 (stereo partly drawn) [Compound C1, reference compound] ({pTerphenylCO(4''-OnC5H11)}-[Orn(4R-OH,5R-OH)][Thr(3ξ)][Hyp][hTyr(3R-OH)][Thr(3ξ)][Pro(3S-OH,4S-Me)]; lactam 1-C) | 0.01 µg/mL | 0.156 µg/mL | 0.02 µg/mL | 0.01 µg/mL | >20 µg/mL | significantly reduced | as effective as amphotericin B | more than 99% | > 90% |  |
| Boc-Asp-semialdehyde(dimethyl acetal)-Thr(TBS)-Hyp(TBS)-hTyr(3-OTBS,4'-OTBS)-Thr(TBS)-Pro(3-OTBS,4-Me)-NHNH2? |  |  |  |  |  |  |  |  |  | 100% |
